Measured values taken from patent publication US11440910B2, “Pesticidally active heterocyclic derivatives with sulfur containing substituents” (SYNGENTA PARTICIPATIONS AG, priority 2017, dated 2022).

Experiments:
Format in all cases: in vivo
[1] = system: Plutella xylostella (Diamond back moth); assay: Example B3: Plutella xylostella, artificial diet; conditions: 120 h, application rate 200 ppm, L2 larvae, 5 days after infestation, read-out: effect in at least one of the two categories (mortality or growth inhibition)
Procedure: Example B3: Plutella Xylostella (Diamond Back Moth)
(§1) 24-well microtiter plates with artificial diet were treated with aqueous test solutions prepared from 10′000 ppm DMSO stock solutions by pipetting. After drying, the plates were infested with L2 larvae (10 to 15 per well). The samples were assessed for mortality and growth inhibition in comparison to untreated samples 5 days after infestation.

[2] = system: Diabrotica balteata (Corn root worm); assay: Example B4: Diabrotica balteata, maize sprouts sprayed; conditions: 96 h, application rate 200 ppm, L2 larvae, 4 days after infestation, read-out: effect in at least one of the two categories (mortality or growth inhibition)
Procedure: Example B4: Diabrotica Balteata (Corn Root Worm)
as §1, with “Maize sprouts placed onto an agar layer in 24-well” for “24-well”, “plates” for “plates with artificial diet”, “spraying.” for “pipetting.”, “(6” for “(10”, “10” for “15”, “4” for “5”

[3] = system: Myzus persicae (Green peach aphid); assay: Example B5: Myzus persicae, sunflower leaf discs sprayed; conditions: foliar, 144 h, application rate 200 ppm, mixed ages, 6 days after infestation
Procedure: Example B5: Myzus Persicae (Green Peach Aphid)
Sunflower leaf discs were placed onto agar in a 24-well microtiter plate and sprayed with aqueous test solutions prepared from 10′000 ppm DMSO stock solutions. After drying, the leaf discs were infested with an aphid population of mixed ages. The samples were assessed for mortality 6 days after infestation.

[4] = system: Euschistus heros (Neotropical brown stink bug); assay: Example B8: Euschistus heros, soybean leaves sprayed; conditions: 120 h, application rate 200 ppm, N2 nymphs, 5 days after infestation, read-out: effect in at least one of the two categories (mortality or growth inhibition)
Procedure: Example B8: Euschistus Heros (Neotropical Brown Stink Bug)
Soybean leaves on agar in 24-well microtiter plates were sprayed with aqueous test solutions prepared from 10′000 ppm DMSO stock solutions. After drying the leaves were infested with N2 nymphs. The samples were assessed for mortality and growth inhibition in comparison to untreated samples 5 days after infestation.

[5] = system: Myzus persicae (Green peach aphid); assay: Example B6: Myzus persicae, roots of pea seedlings in test solution; conditions: 144 h, test rate 24 ppm, mixed ages, 6 days after placing seedlings into test solutions
Procedure: Example B6: Myzus Persicae (Green Peach Aphid)
Roots of pea seedlings infested with an aphid population of mixed ages were placed directly into aqueous test solutions prepared from 10′000 DMSO stock solutions. The samples were assessed for mortality 6 days after placing seedlings into test solutions.

[6] = system: Bemisia tabaci (Cotton white fly); assay: Example B7: Bemisia tabaci, cotton leaf discs sprayed; conditions: foliar, 144 h, application rate 200 ppm, adult white flies, 6 days after incubation
Procedure: Example B7: Bemisia Tabaci (Cotton White Fly)
Cotton leaf discs were placed on agar in 24-well microtiter plates and sprayed with aqueous test solutions prepared from 10′000 ppm DMSO stock solutions. After drying the leaf discs were infested with adult white flies. The samples were checked for mortality 6 days after incubation.

| SMILES | percent effect (mortality or growth inhibition) at 200 ppm [1] [%] | percent effect (mortality or growth inhibition) at 200 ppm [2] [%] | mortality at 200 ppm [3] [%] | percent effect (mortality or growth inhibition) at 200 ppm [4] [%] | mortality at 24 ppm [5] [%] | mortality at 200 ppm [6] [%] |
| --- | --- | --- | --- | --- | --- | --- |
| CCC(C#N)(CC)c1cnc(-c2nc3cc(C(F)(F)F)ncc3n2C)c(S(=O)(=O)CC)c1 [Compound P3, 2-ethyl-2-[5-ethylsulfonyl-6-[3-methyl-6-(trifluoromethyl)imidazo[4,5-c]pyridin-2-yl]-3-pyridyl]butanenitrile] | ≥ 80 | ≥ 80 | – | – | – | – |
| CCC(C#N)c1cnc(-c2nc3cc(C(F)(F)F)ncc3n2C)c(S(=O)(=O)CC)c1 (centres unmarked) [Compound P4, 2-[5-ethylsulfonyl-6-[3-methyl-6-(trifluoromethyl)imidazo[4,5-c]pyridin-2-yl]-3-pyridyl]butanenitrile] | ≥ 80 | ≥ 80 | ≥ 80 | – | – | – |
| CCS(=O)(=O)c1cc(C(C)C#N)cnc1-c1nc2cc(C(F)(F)F)ncc2n1C (centres unmarked) [Compound P6, 2-[5-ethylsulfonyl-6-[3-methyl-6-(trifluoromethyl)imidazo[4,5-c]pyridin-2-yl]-3-pyridyl]propanenitrile] | – | ≥ 80 | – | ≥ 80 | ≥ 80 | – |
| CCOC(=O)C(C)(C#N)c1cnc(-c2nc3cc(C(F)(F)F)ncc3n2C)c(S(=O)(=O)CC)c1 (centres unmarked) [Compound P9, ethyl 2-cyano-2-[5-ethylsulfonyl-6-[3-methyl-6-(trifluoromethyl)imidazo[4,5-c]pyridin-2-yl]-3-pyridyl]propanoate] | ≥ 80 | – | – | ≥ 80 | – | – |
| CCS(=O)(=O)c1cc(C(C#N)C(C)C)cnc1-c1nc2cc(C(F)(F)F)ncc2n1C (centres unmarked) [Compound P10, 2-[5-ethylsulfonyl-6-[3-methyl-6-(trifluoromethyl)imidazo[4,5-c]pyridin-2-yl]-3-pyridyl]-3-methyl-butanenitrile] | ≥ 80 | ≥ 80 | ≥ 80 | – | ≥ 80 | – |
| CCSc1cc(C(C)(C)C#N)ccc1-c1nc2cc(C(F)(F)F)nnc2n1C [Compound P11, 2-[3-ethylsulfanyl-4-[7-methyl-3-(trifluoromethyl)imidazo[4,5-c]pyridazin-6-yl]phenyl]-2-methyl-propanenitrile] | – | ≥ 80 | – | ≥ 80 | – | ≥ 80 |
| CCSc1cc(C(C)C#N)ccc1-c1nc2cc(C(F)(F)F)nnc2n1C (centres unmarked) [Compound P13, 2-[3-ethylsulfanyl-4-[7-methyl-3-(trifluoromethyl)imidazo[4,5-c]pyridazin-6-yl]phenyl]propanenitrile] | – | – | – | ≥ 80 | – | – |
| CCS(=O)(=O)c1cc(C(F)(F)C#N)cnc1-c1nc2cc(C(F)(F)F)ncc2n1C [Compound P15, 2-[5-ethylsulfonyl-6-[3-methyl-6-(trifluoromethyl)imidazo[4,5-c]pyridin-2-yl]-3-pyridyl]-2,2-difluoro-acetonitrile] | – | ≥ 80 | ≥ 80 | ≥ 80 | ≥ 80 | – |
| CCSc1cc(C(C)(C)C#N)ccc1-c1nc2cc(C(F)(F)F)ncc2n1C [Compound P16, 2-[3-ethylsulfanyl-4-[3-methyl-6-(trifluoromethyl)imidazo[4,5-c]pyridin-2-yl]phenyl]-2-methyl-propanenitrile] | – | ≥ 80 | – | ≥ 80 | – | – |
| CCS(=O)(=O)c1cc(C(C)(C)C#N)cnc1-c1nc2cc(Br)ncc2n1C [Compound P19, 2-[6-(6-bromo-3-methyl-imidazo[4,5-c]pyridin-2-yl)-5-ethylsulfonyl-3-pyridyl]-2-methyl-propanenitrile] | – | – | – | ≥ 80 | ≥ 80 | – |
